Values joined by “and” are separate entries in the source; they are usually repeats but may differ in a detail not shown here. Equal entries are not always repeated. Where two headings read alike, the source gives them in different places. Residues, ends and D or L forms follow the SMILES beside them. No end group written: not given here.
Key:
[1] = target: T1, somatic angiotensin-converting enzyme (sACE) (Oryctolagus cuniculus, UniProt P12822); assay: sACE-inhibition fluorimetric assay (o-Abz-Gly-p-Phe(NO2)-Pro-OH substrate); format: biochemical, rabbit; conditions: synthetic peptides; mean ± SD, n = 3; read-out: ACE-Inhibitory Capacity Expressed as IC50 (converted)
T1 construct: the ACE working solution was prepared according to Murray et al. [28] using rabbit lung; from tissue; host or cells: rabbit lung
T1 sequence (P12822 34-1310): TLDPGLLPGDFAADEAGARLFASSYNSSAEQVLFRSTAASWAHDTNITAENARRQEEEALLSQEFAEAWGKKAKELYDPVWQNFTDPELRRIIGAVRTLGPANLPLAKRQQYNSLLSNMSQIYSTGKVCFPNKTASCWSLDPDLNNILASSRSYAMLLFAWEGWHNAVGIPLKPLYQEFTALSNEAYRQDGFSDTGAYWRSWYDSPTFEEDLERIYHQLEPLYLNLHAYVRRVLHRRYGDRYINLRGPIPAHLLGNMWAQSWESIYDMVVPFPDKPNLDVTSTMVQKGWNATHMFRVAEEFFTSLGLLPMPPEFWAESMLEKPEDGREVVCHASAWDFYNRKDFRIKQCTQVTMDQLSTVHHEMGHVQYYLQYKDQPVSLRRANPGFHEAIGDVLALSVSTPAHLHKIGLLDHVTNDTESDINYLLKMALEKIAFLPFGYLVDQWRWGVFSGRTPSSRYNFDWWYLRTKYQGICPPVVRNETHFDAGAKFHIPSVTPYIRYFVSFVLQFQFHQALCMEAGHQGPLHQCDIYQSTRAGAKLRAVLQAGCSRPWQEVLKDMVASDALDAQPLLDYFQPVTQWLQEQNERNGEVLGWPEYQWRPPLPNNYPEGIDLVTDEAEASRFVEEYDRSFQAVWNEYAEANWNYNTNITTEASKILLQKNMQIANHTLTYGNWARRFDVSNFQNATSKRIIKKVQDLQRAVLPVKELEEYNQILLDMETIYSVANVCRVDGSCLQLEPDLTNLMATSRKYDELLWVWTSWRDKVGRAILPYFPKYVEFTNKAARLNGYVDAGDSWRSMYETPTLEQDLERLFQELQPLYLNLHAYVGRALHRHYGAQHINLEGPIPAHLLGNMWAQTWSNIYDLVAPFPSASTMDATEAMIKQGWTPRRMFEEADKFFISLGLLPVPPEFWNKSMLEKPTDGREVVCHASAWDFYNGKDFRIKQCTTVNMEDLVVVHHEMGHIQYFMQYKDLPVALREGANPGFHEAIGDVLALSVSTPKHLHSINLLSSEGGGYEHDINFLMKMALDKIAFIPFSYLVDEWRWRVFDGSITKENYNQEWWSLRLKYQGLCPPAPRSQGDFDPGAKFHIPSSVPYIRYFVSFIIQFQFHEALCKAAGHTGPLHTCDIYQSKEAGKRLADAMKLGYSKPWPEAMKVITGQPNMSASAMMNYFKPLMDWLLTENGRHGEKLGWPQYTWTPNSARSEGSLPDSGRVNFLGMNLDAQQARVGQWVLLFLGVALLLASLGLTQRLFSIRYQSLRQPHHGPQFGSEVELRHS
Experimental: The sACE-inhibitory capacity was determined using a fluorimetric assay, as reported by Tavares et al., with some modifications. Briefly, the ACE working solution was prepared according to Murray et al. using rabbit lung posteriorly diluted in 0.15 M Tris-base buffer (pH 8.3) with 0.1 mM ZnCl2. A total of 40 µL of the working solution was added to each 96-well microplate well (Porvair, Norfolk, UK), then adjusted to 80 µL by adding distilled water to the blank (B), control (C), or samples (S). The enzyme reaction was started by adding 160 µL of 0.45 mM o-Abz-Gly-p-Phe(NO2)-Pro-OH dissolved in 0.15 M Tris-base buffer (pH 8.3) containing 1.125 M NaCl, and the mixture was incubated at 37 °C for 30 min. The fluorescence generated was measured using a multiscan microplate fluorimeter (FLUOstar optima, BMG Labtech, Ortenberg, Germany) with excitation and emission wavelengths of 350 and 420 nm, respectively. Data were processed with the software FLUOstar control (version 1.32 R2, BMG Labtech, Ortenberg, Germany). The assay was performed in triplicate, and the resulting data were subjected to a nonlinear fit using GraphPad Prism 5 to determine the IC50 (half maximal inhibitory concentration) values. The resulting data (n = 3) were expressed as the mean ± SD (standard deviation).

sACE = conditions: cited from earlier work
thoracic aortic rings = system: thoracic aortic rings; parameters: method as in earlier work; conditions: Table S2; ref [19] of supplement; cited from earlier work
[2] = system: spontaneously hypertensive rats (SHR); conditions: cited from earlier work; for anti-hypertensive activity in SHR: Table S2, ref [19] of supplement
[3] = Table S2, peptides from in vitro digestion (pepsin, pancreatin) of edible insects, ref [14] of supplement
[4] = Table S2, ref [17] of supplement, read-out: In Vitro (IC50)
[5] = Table S2, T. molitor larvae, ref [21] of supplement, read-out: In Vitro (IC50)
[6] = peptides found in fermented milks, read-out: IC50 values for sACE
[7] = Table S2, ref [3] of supplement, read-out: In Vitro (IC50)

Q: Which IC50 [1] does the source give for `CC(C)[C@H](NC(=O)[C@@H](N)CC(=O)O)C(=O)N[C@@H](Cc1c[nH]c2ccccc12)C(=O)O` [DVW] (H-Asp-Val-Trp-OH) here?
A: 195 µM and 196 µM

Q: With `CC[C@H](C)[C@H](NC(=O)[C@@H](N)CCC(N)=O)C(=O)N[C@H](C(=O)N[C@@H](Cc1c[nH]c2ccccc12)C(=O)O)C(C)C` [QIVW] (H-QIVW-OH) as the molecule, how does the IC50 [1] read?
A: 140 µM

Q: With “AAAPVAVAK [literature peptide from Tenebrio molitor larvae digestion]” as the molecule, how does the IC50 (sACE) read?
A: 8.31 µg/mL

Q: For “AGDDAPR [literature peptide from Tenebrio molitor protein concentrate digestion]”, which IC50 (sACE) is on record?
A: 8.34 µg/mL

Q: For “AIGVGAIER [literature peptide from Schistocerca gregaria digestion]”, which “In Vitro (IC50)” value (sACE; [3]) is on record?
A: 14.43 ± 0.02 µg/mL

Q: For APPPKK, which “In Vitro (IC50)” value (sACE; Table S2, ref [9] of supplement) is on record?
A: 47 µg/mL

Q: For ASL, which IC50 (sACE; Table S2, ref [5] of supplement, read-out: In Vitro (IC50)) is on record?
A: 102 µM

Q: With “AVFPSIVGR [literature peptide from Apis mellifera pupae hydrolysate]” as the molecule, how does the IC50 (sACE; read-out: IC50) read?
A: 6.64 µM

Q: For AVQPCF [AVQPCF], which IC50 [1] is on record?
A: 3.69 µM

Q: What does the source list for Ala-Val-Phe [AVF]?
A: inhibitory activity in thoracic aortic rings from male Wistar rats (thoracic aortic rings): no inhibitory activity; anti-hypertensive activity in SHR [2]: anti-hypertensive activity; IC50 (sACE; Table S2, ref [18] of supplement, read-out: In Vitro (IC50)): 2120 µM; IC50 (sACE; Table S2, synthesized peptides, ref [19] of supplement, read-out: In Vitro (IC50)): 1370 to 1430 µM

Q: For CAIAW [CAIAW], which IC50 [1] is on record?
A: 6.56 µM and 6.55 µM

Q: With “FDPFPK (LCFDPFPK) [literature peptide from Schistocerca gregaria digestion]” as the molecule, how does the “In Vitro (IC50)” value (sACE; [3]) read?
A: 79.25 ± 0.04 µg/mL

Q: Which IC50 (sACE; [4]) does the source give for FFGT here?
A: 19.4 ± 1.7 µM

Q: With GAMVVH as the molecule, how does the IC50 (sACE; Table S2, ref [7] of supplement, read-out: In Vitro (IC50)) read?
A: 19.4 ± 0.21 µM

Q: With “GKDAVIV [literature peptide from Schistocerca gregaria digestion]” as the molecule, how does the “In Vitro (IC50)” value (sACE; [3]) read?
A: 12.82 ± 0.02 µg/mL

Q: Which IC50 (sACE; Table S2, ref [10] of supplement, read-out: In Vitro (IC50)) does the source give for GNPWM here?
A: 21.7 µM

Q: Which IC50 (sACE; [5]) does the source give for HILG here?
A: 2820 µM

Q: With “IIAPPER [literature peptide from Gryllodes sigillatu digestion]” as the molecule, how does the IC50 (sACE) read?
A: 6.93 µg/mL

Q: With IIIGW [IIIGW] as the molecule, how does the IC50 [1] read?
A: 54.6 µM and 54.5 µM

Q: Which IC50 (sACE; [6]) does the source give for IPP here?
A: 5 µM

Q: With KHV as the molecule, how does the IC50 (sACE; Table S2, ref [8] of supplement, read-out: In Vitro (IC50)) read?
A: 12.8 µM

Q: Which IC50 (sACE) does the source give for “KVEGDLK [literature peptide from Gryllodes sigillatu digestion]” here?
A: 3.67 µg/mL

Q: For “LAPSTIK [literature peptide from Gryllodes sigillatu digestion]”, which “In Vitro (IC50)” value (sACE; [3]) is on record?
A: 11.14 ± 0.08 µg/mL

Q: For LLKPY, which IC50 (sACE; Table S2, ref [2] of supplement, read-out: In Vitro (IC50)) is on record?
A: 54.9 µM

Q: Which IC50 (sACE; [4]) does the source give for LSRVP here?
A: 52.7 ± 4.04 µM

Q: With NIKY as the molecule, how does the IC50 (sACE; [5]) read?
A: 52.2 µM

Q: For “NYVADGLG [literature peptide from Tenebrio molitor larvae digestion]”, which “In Vitro (IC50)” value (sACE; [3]) is on record?
A: 12.09 ± 0.08 µg/mL

Q: With “PGKVHIT [literature peptide from Apis mellifera pupae hydrolysate]” as the molecule, how does the IC50 (sACE; [7]) read?
A: 224 µM

Q: For PIVCF [PIVCF], which IC50 [1] is on record?
A: 4.64 µM and 4.63 µM

Q: For “PPVLVFV [literature peptide from Apis mellifera pupae hydrolysate]”, which IC50 (sACE; [7]) is on record?
A: 47.8 µM

Q: Which IC50 (sACE; [5]) does the source give for QGLGY here?
A: 264 µM

Q: For RYL, which IC50 (sACE; peptide from Bombyx mori hydrolysates, read-out: IC50) is on record?
A: 3.31 µM

Q: For “VAPEEHPV [literature peptide from Gryllodes sigillatu digestion]”, which “In Vitro (IC50)” value (sACE; [3]) is on record?
A: 18.85 ± 0.05 µg/mL

Q: For VPP, which IC50 (sACE; [6]) is on record?
A: 9 µM

Q: What does the source list for Val-Phe [VF]?
A: inhibitory activity in thoracic aortic rings from male Wistar rats (thoracic aortic rings): inhibitory activity; anti-hypertensive activity in SHR [2]: anti-hypertensive activity; in vivo antihypertensive capacity [2]: demonstrated in vivo antihypertensive capacity; IC50 (sACE; Table S2, […], ref [19] of supplement, read-out: In Vitro (IC50)): 120 to 144 µM

Q: With YAN as the molecule, how does the “In Vitro (IC50)” value (sACE; Table S2, T. molitor larva flour, alcalase, ref [20] of supplement) read?
A: 17 µg/mL

Q: And the IC50 (sACE; [5])?
A: 172 µM

Q: With “YDDGSYKPH [literature peptide from Tenebrio molitor larvae digestion]” as the molecule, how does the IC50 (sACE) read?
A: 5.81 µg/mL

Q: With “YETGNGIK [literature peptide from Schistocerca gregaria digestion]” as the molecule, how does the IC50 (sACE) read?
A: 3.25 µg/mL

Source: paper PMC11544891, “Uncovering the Potential Somatic Angiotensin-Converting Enzyme (sACE) Inhibitory Capacity of Peptides from Acheta domesticus: Insights from In Vitro Gastrointestinal Digestion” (Foods, 2024)
